Results taken from EP0037318A1, “Composition, particularly useful in the treatment and prevention of dandruff and containing metallic derivatives of thiobenzoic acid” (PIERRE FABRE S.A., priority 1980, dated 1981).
Read-outs that look alike come from different tables or passages of the source.

How the values were obtained:
[1] = Delay of auto-oxidation (Waginaire conditions): daily Ip in interesterified oil Labrafil M 1944 CS; conditions: rank order by delay of the auto-oxidation maximum; dose 1/10 000 in Labrafil M 1944 CS, Ip daily for 90 days at 60°C
Description: (Bulletin technique SFPA n° 60) l'évolution des peroxydes se fait en trois phases : • 1) évolution lente de l'Ip (non observée avec l'acide linoléique) • 2) évolution rapide de l'Ip (deux premiers jours) • 3) stabilisation et décroissance de l'Ip.
Cette dernière période apparaît après plusieurs semaines. L'auteur attribue ce phénomène à la formation de groupements carbonyles (aldéhydes et cétones).
On obtient un profil de courbe Ip = f(t) comportant un maximum d'auto-oxydation net.
L'anti-oxydant est d'autant plus efficace que le maximum d'auto-oxydation est-retardé.

[2] = Anti-oxidant power: daily peroxide index (Ip) of linoleic acid containing the suspended agent; conditions: for INDICES DE PEROXYDES: agent at 1 % suspended in linoleic acid, stored at 60°C
Description: La mesure du pouvoir anti-oxydant est effectuée selon la méthode décrite par CARNAT et POURRAT (Ann. Pharm. Fr. 1979, 37, n° 3-4, p. 119-124) en remplaçant l'huile de lin par de l'acide linoléique.
L'oxydation de l'acide linoléique est suivie chaque jour par une mesure de l'indice de peroxydes Ip.
Dans un flacon contenant l'acide linoléique on ajoute 15 ml de CHC13, 20 ml d'acide acétique RP puis 1 ml de solution aqueuse saturée de KI. On agite 1 mn et on laisse reposer le flacon 5 mn à l'obscurité. Après avoir ajouté 100 ml d'eau on dose l'iode libéré par du thiosulfate de sodium 0,01 N. [formula] v = volume de Na2S2O3 versé dans le dosage v = volume de Na2S2O3 versé dans l'essai à blanc Ip est exprimé en mmoles d'oxygène/kg d'acide gras.
Remarque : v doit être voisin de O car un Ip élevé révèle une oxydation du KI par l'oxygène de l'air ou dissous dans les réactifs. Pour éviter cela, les réactifs et le solvant devront être débarrassés de l'oxygène dissous par barbotage de gaz inerte, ceci afin d'obtenir des résultats comparables.
Les différents agents anti-oxydants étudiés sont mis en suspension dans l'acide linoléique et les mélanges ainsi obtenus sont stockés à l'étuve (60°C).
Tous les jours un Ip est effectué sur les mélanges suivants : • 1 - acide thiosalicylique à 1 % • 2 - pyridine thione Zn à 1 % • 3 - thiosalicylate de Zn à 1 %.

[3] = Maximum solubility in water at 20°C, by spectroscopy
[4] = Partition coefficients at 20°C; assay type: physicochemical
Description: 2°) Détermination des coefficients de partage à 20°C

Zinc content = assay type: physicochemical
[5] = water

| Molecule | Pouvoir anti-oxydant [1] | INDICES DE PEROXYDES ([2]; 0 (start)) | INDICES DE PEROXYDES ([2]; 1 jour) | INDICES DE PEROXYDES ([2]; 2 jours) | INDICES DE PEROXYDES ([2]; 3 jours) | INDICES DE PEROXYDES ([2]; 4 jours) | Solubilité maximum dans l'eau [3] [mg % ml] | Valeurs de P ([4]; CHCl3 - eau) | Valeurs de P ([4]; Octanol-eau) | % Zinc (Zinc content) | Solubilité maximum dans l'eau [5] | activité anti-oxydante ([2]; in words, compared with pyrithione zinc) |
| --- | --- | --- | --- | --- | --- | --- | --- | --- | --- | --- | --- | --- |
| O=C(O)c1ccccc1S [acide thiosalicylique] | thiosalicylate de Zinc > pyrithione zinc> acide thiosalicylique | 0,8 millimoles D2 pour 1000 g d'acide linoléique | 117,2 millimoles D2 pour 1000 g d'acide linoléique | 191,9 millimoles D2 pour 1000 g d'acide linoléique | 202,7 millimoles D2 pour 1000 g d'acide linoléique | 204,2 millimoles D2 pour 1000 g d'acide linoléique | – | – | – | – | – | – |
| [O-][n+]1ccccc1[S-].[O-][n+]1ccccc1[S-].[Zn+2] [pyrithione zinc] | thiosalicylate de Zinc > pyrithione zinc> acide thiosalicylique | 0,7 millimoles D2 pour 1000 g d'acide linoléique | 98 millimoles D2 pour 1000 g d'acide linoléique | 174,1 millimoles D2 pour 1000 g d'acide linoléique | 177,6 millimoles D2 pour 1000 g d'acide linoléique | 183,7 millimoles D2 pour 1000 g d'acide linoléique | 2 | 0,30 | 0,64 | 20,5% | – | – |
| chloro-5-thiosalicylate de zinc [Exemple 9] | – | – | – | – | – | – | – | – | – | 25,7% | – | – |
| méthoxy-4-thiosalicylate de zinc [Exemple 8] | – | – | – | – | – | – | – | – | – | 26,3% | – | – |
| ortho thiocrésotinate de zinc [Exemple 7] | – | – | – | – | – | – | – | – | – | 28,1% | – | – |
| thiosalicylate de zinc [Exemple 1] | thiosalicylate de Zinc > pyrithione zinc> acide thiosalicylique | 0,6 millimoles D2 pour 1000 g d'acide linoléique | 45,5 millimoles D2 pour 1000 g d'acide linoléique | 84,4 millimoles D2 pour 1000 g d'acide linoléique | 99,5 millimoles D2 pour 1000 g d'acide linoléique | 103,9 millimoles D2 pour 1000 g d'acide linoléique | – | 0,05 | 0,21 | 30% | 1,80 mg % ml | excellente |
